# Legend:
# Set-up in all cases: species or system AML cell lines (8); Primary HTS, single concentration about 10 uM, Cell Titer Glo viability; log10 luminescence, per cent inhibition relative to cycloheximide control
# Details in all cases: 72 h, relative to cycloheximide control, log10 luminescence; inhibitor
# CHRF288-11 = system: CHRF288-11
# CMK = system: CMK
# CMS = system: CMS
# M07e = system: M07e
# ML-2 = system: ML-2
# MOLM-13 = system: MOLM-13
# MV4-11 = system: MV4-11
# U937 = system: U937
Structure (SMILES),CHRF288-11 %inh (CHRF288-11) [%],CMK %inh (CMK) [%],CMS %inh (CMS) [%],M07e %inh (M07e) [%],ML-2 %inh (ML-2) [%],MOLM-13 %inh (MOLM-13) [%],MV4-11 %inh (MV4-11) [%],U937 %inh (U937) [%]
Cn1cc(C2=C(c3cn(C)c4c(N)cccc34)C(=O)NC2=O)c2ccccc21 [SJ000581084-1],31.5,34.34,26.64,30.04,31.97,57.26,35.68,30.59
COC[C@H](N=C1NC(=O)/C(=C/c2ccc3ncccc3c2)S1)c1ccccc1 [SJ000581086-1],2.677,5.986,4.472,15.62,2.549,-1.579,-0.3199,4.246
Fc1ccc(-c2c(-c3ccncc3)[nH]c3cccnc23)cc1 [SJ000581088-1],1.888,-0.07997,0.767,3.19,-1.446,-2.723,0.5271,1.73
N#CCn1c(=O)c(Oc2ccc(F)cc2F)cc2cnc(NC3CCOCC3)nc21 [SJ000581089-1],0.7869,1.27,1.167,5.15,0.2559,79.15,0.2945,0.6532
Nc1c(C(=O)c2cccc(C#CCN3CCCCC3)c2)cnn1-c1ccc(F)cc1 [SJ000581090-1],2.1,-1.859,8.688,8.075,0.9731,0.3011,1.177,7.38
O=c1[nH]c2nc(NC3CCOCC3)ncc2cc1Oc1ccc(F)cc1F [SJ000581091-1],2.671,-0.7252,4.57,7.401,-1.12,-2.415,0.8036,1.694
COc1cccc(C2=C(c3cn(C)c4cccc(OC)c34)C(=O)NC2=O)c1 [SJ000581093-1],15.23,64.38,2.878,15.31,1.141,14.52,0.2916,7.981
Cn1c(=O)c(Sc2ccccc2F)cc2cnc(NC3CCOCC3)nc21 [SJ000581094-1],5.078,-1.429,-0.09142,79.34,-0.9832,-2.304,1.745,-2.114
Cn1cc(C2=C(c3cn(C)c4c([N+](=O)[O-])cccc34)C(=O)NC2=O)c2ccccc21 [SJ000581096-1],-0.1815,1.442,-0.5679,3.87,-1.675,-1.995,1.039,-1.424
Cn1cc(C2=C(c3cccnc3)C(=O)NC2=O)c2ccccc21 [SJ000581097-1],42.59,8.732,3.929,1.519,3.521,6.704,3.908,-1.738
Cn1cc(C2=C(c3cn(C)c4ccc(Cl)cc34)C(=O)NC2=O)c2ccccc21 [SJ000581098-1],10.98,47.95,0.498,13.21,3.034,13.33,5.255,4.952
Cn1cc(C2=C(c3cn(C)c4ncccc34)C(=O)NC2=O)c2ccccc21 [SJ000581101-1],23.35,41.81,2.698,5.727,0.3677,47.28,0.9422,8.822
Nc1c(C(=O)c2cccc(OCCN3CCOCC3)c2)cnn1-c1ccc(F)cc1 [SJ000581103-1],-1.374,0.9343,-1.582,6.806,2.31,-0.4893,1.093,7.007
Nc1c(C(=O)c2cccc(CCS(N)(=O)=O)c2)cnn1-c1ccc(F)cc1 [SJ000581104-1],-1.775,1.701,3.265,6.935,1.884,-0.2243,1.774,0.2995
Nc1[nH]nc2nc(-c3cccs3)cc(C(F)(F)F)c12 [SJ000581105-1],-1.43,-1.06,2.722,8.033,1.699,17.65,7.712,0.05414
COc1ccccc1CCN=C1NC(=O)/C(=C/c2ccc3ncccc3c2)S1 [SJ000581106-1],4.589,41.08,4.605,24.66,10.31,8.02,10.91,6.939
Cn1cc(C2=C(Sc3ccccc3)C(=O)NC2=O)c2ccccc21 [SJ000581108-1],15.38,17.14,5.691,13.92,5.065,79.89,3.129,7.938
Cn1cc(C2=C(c3ccc4ccccc4c3)C(=O)NC2=O)c2ccccc21 [SJ000581109-1],15.54,22.8,2.57,12.46,4.34,1.67,1.463,4.798
Nc1c(C(=O)c2cccc(C(O)CO)c2)cnn1-c1ccc(F)cc1 (stereo not drawn) [SJ000581110-1],9.958,-1.427,3.504,7.822,2.206,27.67,3.101,-0.488
CC(=O)Nc1ccc2c(C3=C(c4cn(C)c5ccccc45)C(=O)NC3=O)cn(C)c2c1 [SJ000581111-1],123.6,104.7,99.23,89.33,39.48,95.13,74.04,75.9
CCNC(=O)[C@@H]1CCCN2C(=O)CC[C@H](NC(=O)[C@H](Cc3ccc(OP(=O)(O)O)cc3)NC(C)=O)C(=O)N12 [SJ000581112-1],-7.883,0.5327,-0.07964,4.13,2.455,0.008932,1.373,0.08443
Cn1cc(C2=C(c3ccsc3)C(=O)NC2=O)c2ccccc21 [SJ000581113-1],8.413,4.136,3.6,3.37,4.351,31.75,4.067,0.5485
CS(=O)(=O)N1CCC(Nc2ncc(C(=O)c3c(F)cccc3F)c(N)n2)CC1 [SJ000581114-1],0.1318,18.19,2.662,7.028,1.661,68.54,0.7328,3.392
COc1cc[nH]c1/C=C1\C(=O)Nc2ccc(F)c(I)c21 [SJ000581115-1],-1.945,-0.2359,4.321,4.603,0.5185,8.55,2.865,3.766

# — publication PMC6522510 (Nature Communications, 2019)
